Assay results published in article PMC2944806, “HLA Class I Binding of HBZ Determines Outcome in HTLV-1 Infection” (PLoS Pathogens, 2010).

Legend:
[1] = target: T1, HLA class I molecule A*0201 (Homo sapiens, UniProt P04439, D140Y/D185E/D98H/E176V/E277Q/G131W/G231S/I119V/I121R/I166T/I218V/L300P/L318F/N151K/N90K/P208A/P217A/Q86G/Q94H/R138H/R169H/T345S); format: binding; details: REVEAL assay, assembly of peptide-HLA complex by ELISA with conformation-dependent anti-HLA antibody, relative to positive control peptide for that allele, comparable within an allele only
T1 construct: purchased ProImmune Ltd., Oxford, UK

[2] = target: HLA class I molecule B*3501 (Homo sapiens, UniProt P01889, A329T/A93T/A95T/C349S/D201E/D98Y/E176V/E187L/E204Q/E69T/I218V/K202T/L119I/Q94N/R155S/R180L/S121R/S35A/S48A/T118I/V127L/V306I/V36M/Y140S/Y91F); test: REVEAL HLA-peptide binding assay, B*3501; details: assembly of peptide-HLA complex by ELISA with conformation-dependent anti-HLA antibody, relative to positive control peptide for that allele, comparable within an allele only
Experimental: (§1) The REVEAL HLA-peptide binding assay (ProImmune Ltd., Oxford, UK) was used to quantify peptide-HLA binding. For each allele-peptide combination that was tested, assembly of peptide-HLA complexes was quantified by ELISA with a conformation-dependent anti-HLA antibody. Samples of assembling peptide-HLA complexes were taken at a defined time point and snap-frozen in liquid nitrogen prior to analysis. The assembly for each peptide-HLA complex was then compared against a positive control peptide for that allele as the percentage of assembled peptide relative to that control. We selected four HLA class I alleles and 50 HTLV-1 peptides for each allele. The allele choice was based on allele frequency in the Kagoshima database and included 2 A alleles and 2 B alleles as well as alleles for which we knew that the epitope prediction tended to be poor. The 50 HTLV-1 nonamer peptides for each allele were selected to represent a range of predicted binding affinities, from weak to strong binding peptides. They originated from 4 HTLV-1 reference strain proteins: Tax, HBZ, Gag and Polymerase.
(§2) Note the binding score is with respect to a reference good binding peptide for each allele and therefore scores can be compared within an allele but not between alleles.

[3] = target: T2, HLA class I molecule B*0702 (Homo sapiens, UniProt P01889); test: REVEAL HLA-peptide binding assay, B*0702; design: concentration or dose not given beside the values; details: assembly of peptide-HLA complex by ELISA with conformation-dependent anti-HLA antibody, relative to positive control peptide for that allele, comparable within an allele only
T2 construct: purchased ProImmune Ltd., Oxford, UK
Experimental: as §1, §2

[4] = target: T3, HLA class I molecule A*2402 (Homo sapiens, UniProt P04439, D101N/D140Y/D185E/E176V/E190D/F33S/G103R/G107R/I119L/I121M/I306V/K335N/L105A/L180Q/L300P/N151K/N90K/Q86E/Q94H/R106L/R138H/R89G/T104I/T345S/V100E/W191G/Y123F); format: binding; details: REVEAL assay, assembly of peptide-HLA complex by ELISA with conformation-dependent anti-HLA antibody, relative to positive control peptide for that allele, comparable within an allele only
T3 construct: purchased ProImmune Ltd., Oxford, UK

AAHHWLNFL [HTLV-1 nonamer peptide]
Score (experimentally measured binding affinity, % binding compared to control peptide) [1]: 5.86%
Score (experimentally measured binding affinity, % binding compared to control peptide) [2]: 0%
Score (experimentally measured binding affinity, % binding compared to control peptide) [3]: 27.59%

AASGLFRCL [HTLV-1 nonamer peptide]
Score (experimentally measured binding affinity, % binding compared to control peptide) [2]: 7.33%
Score (experimentally measured binding affinity, % binding compared to control peptide) [3]: 107.28%

APLPHTSQC [HTLV-1 nonamer peptide]
Score (experimentally measured binding affinity, % binding compared to control peptide) [3]: 135.12%

DPISRLNAL [HTLV-1 nonamer peptide]
Score (experimentally measured binding affinity, % binding compared to control peptide) [2]: 67.38%
Score (experimentally measured binding affinity, % binding compared to control peptide) [3]: 115.84%

FPGFGQSLL [HTLV-1 nonamer peptide]
Score (experimentally measured binding affinity, % binding compared to control peptide) [2]: 55.31%
Score (experimentally measured binding affinity, % binding compared to control peptide) [3]: 102.99%

FVERLNIAL [HTLV-1 nonamer peptide]
Score (experimentally measured binding affinity, % binding compared to control peptide) [1]: 6.6%
Score (experimentally measured binding affinity, % binding compared to control peptide) [2]: 13.69%
Score (experimentally measured binding affinity, % binding compared to control peptide) [3]: 104.14%

HPGQLGAFL [HTLV-1 nonamer peptide]
Score (experimentally measured binding affinity, % binding compared to control peptide) [2]: 34.24%
Score (experimentally measured binding affinity, % binding compared to control peptide) [3]: 60.82%

HQLKKFLKI [HTLV-1 nonamer peptide]
Score (experimentally measured binding affinity, % binding compared to control peptide) [1]: 0%
Score (experimentally measured binding affinity, % binding compared to control peptide) [4]: 46.49%

IALETPARI [HTLV-1 nonamer peptide]
Score (experimentally measured binding affinity, % binding compared to control peptide) [1]: 17.01%
Score (experimentally measured binding affinity, % binding compared to control peptide) [4]: 9.68%

KARRRRRAE [HTLV-1 nonamer peptide]
Score (experimentally measured binding affinity, % binding compared to control peptide) [3]: 0%

KISLTTGAL [HTLV-1 nonamer peptide]
Score (experimentally measured binding affinity, % binding compared to control peptide) [1]: 3.54%
Score (experimentally measured binding affinity, % binding compared to control peptide) [3]: 71.26%

KYTLQSYGL [HTLV-1 nonamer peptide]
Score (experimentally measured binding affinity, % binding compared to control peptide) [4]: 104.78%

LEAERRKLL [HTLV-1 nonamer peptide]
Score (experimentally measured binding affinity, % binding compared to control peptide) [3]: 1.08%

LPFHSTLTT [HTLV-1 nonamer peptide]
Score (experimentally measured binding affinity, % binding compared to control peptide) [2]: 102.24%
Score (experimentally measured binding affinity, % binding compared to control peptide) [3]: 97.77%

LPGLNSRQW [HTLV-1 nonamer peptide]
Score (experimentally measured binding affinity, % binding compared to control peptide) [3]: 6.78%

LPVMHPHGA [HTLV-1 nonamer peptide]
Score (experimentally measured binding affinity, % binding compared to control peptide) [3]: 9.38%

LPVSCPEDL [HTLV-1 nonamer peptide]
Score (experimentally measured binding affinity, % binding compared to control peptide) [2]: 74.86%
Score (experimentally measured binding affinity, % binding compared to control peptide) [3]: 6.44%

LSPPITWPL [HTLV-1 nonamer peptide]
Score (experimentally measured binding affinity, % binding compared to control peptide) [1]: 34.53%
Score (experimentally measured binding affinity, % binding compared to control peptide) [4]: 4.52%
Score (experimentally measured binding affinity, % binding compared to control peptide) [2]: 41.83%

LVLQSSSFI [HTLV-1 nonamer peptide]
Score (experimentally measured binding affinity, % binding compared to control peptide) [1]: 41.33%
Score (experimentally measured binding affinity, % binding compared to control peptide) [3]: 1.65%

LWLAAFAAL [HTLV-1 nonamer peptide]
Score (experimentally measured binding affinity, % binding compared to control peptide) [4]: 30.63%

MPVFTLSPV [HTLV-1 nonamer peptide from Pol]
Score (experimentally measured binding affinity, % binding compared to control peptide) [2]: 114.77%
Score (experimentally measured binding affinity, % binding compared to control peptide) [3]: 142.96%

NFLQAAYRL [HTLV-1 nonamer peptide]
Score (experimentally measured binding affinity, % binding compared to control peptide) [4]: 113.8%
Score (experimentally measured binding affinity, % binding compared to control peptide) [2]: 3.16%

NYSLLASLL [HTLV-1 nonamer peptide]
Score (experimentally measured binding affinity, % binding compared to control peptide) [4]: 105.08%

PPNHRPWQM [HTLV-1 nonamer peptide]
Score (experimentally measured binding affinity, % binding compared to control peptide) [3]: 103.11%

PYHAFVERL [HTLV-1 nonamer peptide]
Score (experimentally measured binding affinity, % binding compared to control peptide) [4]: 113.04%

PYKRIEELL [HTLV-1 nonamer peptide]
Score (experimentally measured binding affinity, % binding compared to control peptide) [4]: 99.06%

PYNPTSSGL [HTLV-1 nonamer peptide]
Score (experimentally measured binding affinity, % binding compared to control peptide) [4]: 104.86%

QPARAPVTL [HTLV-1 nonamer peptide]
Score (experimentally measured binding affinity, % binding compared to control peptide) [2]: 55.56%
Score (experimentally measured binding affinity, % binding compared to control peptide) [3]: 135.43%

QPRPPPGPC [HTLV-1 nonamer peptide]
Score (experimentally measured binding affinity, % binding compared to control peptide) [3]: 138.82%

QYLCSSLVA [HTLV-1 nonamer peptide]
Score (experimentally measured binding affinity, % binding compared to control peptide) [4]: 4.85%

RAEKKAADV [HTLV-1 nonamer peptide]
Score (experimentally measured binding affinity, % binding compared to control peptide) [3]: 2.78%

RDRQRRAEE [HTLV-1 nonamer peptide]
Score (experimentally measured binding affinity, % binding compared to control peptide) [3]: 1.54%

RGRLRRGPP [HTLV-1 nonamer peptide]
Score (experimentally measured binding affinity, % binding compared to control peptide) [3]: 1.21%

RPAPPPPSS [HTLV-1 nonamer peptide]
Score (experimentally measured binding affinity, % binding compared to control peptide) [3]: 93.08%

RPPRGLAAH [HTLV-1 nonamer peptide]
Score (experimentally measured binding affinity, % binding compared to control peptide) [2]: 34.86%
Score (experimentally measured binding affinity, % binding compared to control peptide) [3]: 143.59%

RRRAEKKAA [HTLV-1 nonamer peptide]
Score (experimentally measured binding affinity, % binding compared to control peptide) [3]: 0%

RVNEILHIL [HTLV-1 nonamer peptide]
Score (experimentally measured binding affinity, % binding compared to control peptide) [1]: 49.35%
Score (experimentally measured binding affinity, % binding compared to control peptide) [2]: 8.02%
Score (experimentally measured binding affinity, % binding compared to control peptide) [3]: 89.83%

SARLHRHAL [HTLV-1 nonamer peptide]
Score (experimentally measured binding affinity, % binding compared to control peptide) [3]: 236.66%

SFLLSHGLI [HTLV-1 nonamer peptide]
Score (experimentally measured binding affinity, % binding compared to control peptide) [4]: 79.27%

STLTTPGLI [HTLV-1 nonamer peptide]
Score (experimentally measured binding affinity, % binding compared to control peptide) [1]: 0.84%
Score (experimentally measured binding affinity, % binding compared to control peptide) [4]: 0%

SWASILQGL [HTLV-1 nonamer peptide]
Score (experimentally measured binding affinity, % binding compared to control peptide) [4]: 123.67%

SYGLLCQTI [HTLV-1 nonamer peptide]
Score (experimentally measured binding affinity, % binding compared to control peptide) [4]: 114.37%

TPKDKTKVL [HTLV-1 nonamer peptide from Gag]
Score (experimentally measured binding affinity, % binding compared to control peptide) [3]: 113.7%

TPNIPPSFL [HTLV-1 nonamer peptide]
Score (experimentally measured binding affinity, % binding compared to control peptide) [3]: 138.52%

TTPGLIWTF [HTLV-1 nonamer peptide]
Score (experimentally measured binding affinity, % binding compared to control peptide) [4]: 215.15%

TTPNIPPSF [HTLV-1 nonamer peptide]
Score (experimentally measured binding affinity, % binding compared to control peptide) [4]: 0.43%

TWPLLPHVI [HTLV-1 nonamer peptide]
Score (experimentally measured binding affinity, % binding compared to control peptide) [4]: 118.19%

VFTLSPVII [HTLV-1 nonamer peptide]
Score (experimentally measured binding affinity, % binding compared to control peptide) [4]: 97.21%

VLQSSSFIF [HTLV-1 nonamer peptide]
Score (experimentally measured binding affinity, % binding compared to control peptide) [4]: 82.42%

VPIRSRWAL [HTLV-1 nonamer peptide]
Score (experimentally measured binding affinity, % binding compared to control peptide) [3]: 125.64%

VPYKRIEEL [HTLV-1 nonamer peptide]
Score (experimentally measured binding affinity, % binding compared to control peptide) [3]: 133.31%

VSCPEDLLV [HTLV-1 nonamer peptide]
Score (experimentally measured binding affinity, % binding compared to control peptide) [4]: 9.6%

WQGRLEAMW [HTLV-1 nonamer peptide]
Score (experimentally measured binding affinity, % binding compared to control peptide) [4]: 2.54%

WQMKDLQAI [HTLV-1 nonamer peptide]
Score (experimentally measured binding affinity, % binding compared to control peptide) [1]: 44.68%
Score (experimentally measured binding affinity, % binding compared to control peptide) [4]: 0%

YPGRVNEIL [HTLV-1 nonamer peptide]
Score (experimentally measured binding affinity, % binding compared to control peptide) [2]: 109.69%
Score (experimentally measured binding affinity, % binding compared to control peptide) [3]: 158.86%

YWQGRLEAM [HTLV-1 nonamer peptide]
Score (experimentally measured binding affinity, % binding compared to control peptide) [4]: 40.32%
Score (experimentally measured binding affinity, % binding compared to control peptide) [2]: 7.1%
